Patent publication US20160022762A1, “Agent for Eliminating Multidrug Resistance” (priority 2008, published 2016)
“Also recorded” adds a separate entry of the source. Each block holds one compound with its values, some of them ahead of it. Peptide text beside a SMILES is read from it.

What was measured:
[1] = tested on: stage III cervical carcinoma; assay: clinical case, chemoradiotherapy with hexapeptide (Example 5); assay type: in vivo, human
Experimental: Patient. Clinical diagnosis: stage III cervical carcinoma (T3NX-1M0). Examination of the patient included clinical and laboratory assessment both at admission and during treatment. […] general condition was of moderate severity. […] The percentage of CD3, CD4, CD8, CD16-positive cells was decreased relative to the average statistical normal values 2-fold. The person prior to antineoplastic treatment had received a course of 5-time administration of the hexapeptide in the form of 1 ml of 0.005% solution subcutaneously daily for 5 days. Chemoradiotherapy was carried out according to the regimen: 500 mg of 5-fluorouracil (total dose 2,500 mg). During the whole course of chemoradiotherapy, the person received 1 ml of 0.005% solution of the hexapeptide (biopoetin) 5 times daily. Two days after discontinuation of 5-fluorouracil, the patient underwent remote irradiation at a single dose of 4 Gy on the background of intravenous administration of 30 mg of cysplastin for 3 days (total dose of cysplastin amounting to 90 mg). Then radiotherapy was continued in the mode of a daily multifractionated dose. Irradiation was carried out up to a focal dose of 20 Gy onto the area of the primary focus and zones of regional metastatic spreading, followed by additional intracavitary gamma-therapy (10 fractions 5 Gy each) and remote irradiation was continued onto the zones of parametrial metastatic spreading up to the total dose amounting to 44 Gy.

Hep-2 cells = assay: growth of Hep-2 tumour cells (trypan blue count); assay type: cell-based, human; details: 1 μg/ml, three days
Experimental: Human laryngeal cancer cells Hep-2 in DMEM medium supplemented with 10% foetal calf serum and 40 μg/ml gentamycin were inoculated in 2-ml penicillin-containing vials, 200 thousand per each vial. The hexapeptide at a dose of 1 μg/ml was added 3 hours after cell inoculation (when they had already adhered to glass) and left in the medium for the whole period of incubation. Three days after inoculation, the cells were detached from glass with trypsin, followed by calculating the number of the living cells: unstained with a 0.04% solution of trypan blue.

MRP [2] = biological target: T1, MRP (Mus musculus, UniProt O35379); assay: calcein formation rate in R388VR cells in the presence of Co2+ (extracellular calcein quenching); details: presence of Co, 12 μM
[3] = solubility of the active principle; assay type: physicochemical
local irritating effect = details: in vivo
[4] = in vivo
breast cancer T4cN2M0 = assay: clinical case, radiotherapy and CMF polychemotherapy with hexapeptide intranasal spray (Example 8); assay type: in vivo, human
Description: Onto the area of the left breast from two tangential opposed fields and with the figured field onto the zones of regional lymph outflow on the left radiotherapy was begun using linear accelerator (LU-20-SL with the deceleration-radiation energy of 6 MeV) in the mode of average dose fractionating, at 3 Gy daily 5 times a week onto the area of the tumour up to the total focal dose (TFD) 45 Gy equivalent to the mode of the conventional fractionation consisting of 2 Gy a day, with TFD 60 Gy, and onto the zones of regional lymph outflow on the left (supraclavicular, subclavicular, axillary and parasternal sites) at a single dose of 3 Gy up to the TFD 33-36 Gy equivalent to 44-48 Gy of the conventional fractionation.
The patient's state after the irradiation course was satisfactory, with the tumour ulceration being at the scarring stage and virtually no discharge. Two weeks later, polychemotherapy was begun according to the CMF regimen carried out for 4 weeks once a week. During 5 days prior to commencing chemotherapy, the person daily received the hexapeptide in the form of an intranasal dosed spray […] at a single dose of 100 μg. The CMF regimen included intravenous drip administration of 1 g of 5-fluorouracil and 40 mg of methotrexate and intramuscular administration of 1 g cyclophosphane. During polychemotherapy, the patients daily received the hexapeptide in the form of an intranasal dosed spray, with the single dose equalling 100 μg.
A repeat course of CMF. The patient received intravenously 40 mg of methotrexate and 1 g of 5-fluorouracil and intramuscularly 1 g of cyclophosphane. The state after polychemotherapy was satisfactory. A cicatrix formed on the site of the previous breast ulceration. Regional lymph nodes were not perceived, the breast was soft to the touch, with no fresh infiltrates. On the mammograms, the tumour node as compared with the findings of mammography obtained at the beginning of treatment had decreased to 5 mm in diameter. Then sequentially a course of polychemotherapy was carried out according to the same regimen and in the same doses. During 5 days prior to commencing chemotherapy, the patient daily received hexapeptide in the form of an intranasal dosed spray 5 times a day at a single does of 100 μg. During polychemotherapy, the patient daily received hexapeptide in the form of an intranasal dosed spray 5 times a day at a single does of 100 μg.

MRP [5] = biological target: T1, MRP; assay: calcein efflux rate from preliminarily calcein-loaded R388VR cells
[6] = tested on: human laryngeal cancer cells Hep-2; assay: survival of Hep-2 cells exposed to arsenate (crystal violet); assay type: cell-based
Experimental: The human laryngeal cancer cells Hep-2 in Dulbecco's modified Eagle's medium (hereinafter referred to as DMEM) (Sigma) supplemented with 10% foetal calf serum (Sigma) and 40 μg/ml of gentamycin (Sigma) were sown in a 96-well culture plate, 0.1 ml per well, at a concentration of 50,000/ml, followed by adding the agents being examined and incubating for 72 hour at 37° C. in an atmosphere of 5% CO2 in air. After incubation, the cells were stained with 0.02% crystal violet solution (Sigma) in 20% ethanol for 10 minutes followed by discarding the stainer solution, washing the cells with water and adding a 0.1% SDS solution for the extraction of the stainer from the cells. The optical density was measured at 570 nm on the spectrophotometer Multiscan Plus. The effect was determined by the formula: No/Nk=(Do−D)/(Dk−D) 100%, where Do, Dk, D are optical densities in the experiment, control, and the background one, respectively, and No/Nk is the cell survival rate: the number of the live cells in the experiment in relation to the control.

[7] = preclinical and clinical studies: toxic reaction and side effects; assay type: in vivo
[8] = tested on: multidrug resistance proteins in the Hep-2 cells; assay: calcein formation rate in Hep-2 cells with Co2+ ions; assay type: cell-based, human; parameters: calcein formation rate increment ratio: dose or concentration left out as unconfirmed; details: Co2+ ions present
[9] = tested on: squamous-cell oesophageal cancer; assay type: in vivo, human
Experimental: The disease was manifested by retrosternal pain, weakness, weight loss. […] Prior to chemoradiotherapy, the patient was given the hexapeptide in the form of a suppository at a dose of 5 mg five times daily for 5 days. The first stage of combined-modality treatment consisted of two courses of polychemotherapy. During the whole period of chemoradiotherapy, the patient received treatment with the proposed agent in the form of rectal suppositories 5 μg twice daily (in the morning and evening).

[10] = tested on: stage III oesophageal cancer; assay type: in vivo, human
Experimental: Clinical diagnosis: stage III oesophageal cancer (T3-4N0-2MOP3). At admission, the patient's general condition of moderate severity. The laboratory indices of the total blood count without pronounced alterations. Noted was a considerable disbalance of the indices of the oxidative-antioxidative system on the background moderate-degree immunosuppression. The state of the oxidative-antioxidative system in the patients was assessed by intensity of lipid peroxidation via measuring blood serum concentration of malonic dialdehyde (MDA, μmol/L) and endogenous antioxidants: lactoferrin (LF, mg/L), caeruloplasmin (CP, conventional units), and the antioxidant enzyme catalase (CAT, conventional units). The analysis of percentage content of the main subpopulations of T-lymphocytes was carried out to superficial receptors of CD3 (T-lymphocytes), CD4 (T-helpers/inducers), CD8 (T-suppressors/cytotoxic lymphocytes), CD16 (natural killers), CD25 (activated lymphocytes expressing the receptor to interleukin-2), CD72 (B-lymphocytes). […] At the same time, the indices of the lymphocytic link were virtually within the normal values. Since CP and LF are proteins of the acute phase of inflammation, an increase in the blood serum reflected the presence of an inflammatory process accompanying the development of oesophageal cancer. Prior to chemoradiotherapy, the patient received intramuscular administration of the hexapeptide daily at a single dose of 1 ml of 0.1% solution 5 times a day for 5 days. Comprehensive chemoradiotherapy was carried out according to the following regimen: 750 mg of 5-fluorouracil (5-FU) was administered intravenously for 5 days (total dose 3,750 mg), two days after the end of administration of 5-FU, the patients was irradiated according to the regimen of dynamic fractionation of the dose at a single dose of 4 Gy on the background of intravenous administration of cysplastin at a dose of 30 mg for 3 days (total dose of cysplastin 90 mg, total focal dose 12 Gy). During the whole period of chemoradiotherapy, the patients was given hexapeptide at a single dose of 100 μg twice daily (in the morning and evening). Commencing from day 11, radiotherapy was continued in the mode of the classical fractionated dose, with the single dose equalling 2 Gy (total focal dose 40 Gy).

[11] = tested on: multidrug resistance-associated transport proteins in Hep-2 cells; assay: rhodamine 123 efflux rate from Hep-2 cells
Experimental: While studying the effect of the inhibitors on the release of Rh123, to the cuvette after several minutes of the normal excretion of the stainer we added the inhibitor in the required concentration. Determining the control and inhibited constants of rhodamine excretion rates on one plate decreases the error of determining their ratio, necessary for obtaining the R value. […] The total amount of rhodamine in the cells was determined by the difference of the fluorescence levels after adding digitonin and before adding cells to the cuvette. The relative amount of Rh123 in the cells (N) was determined according to the following formula: N=1−{It−I0/Imax−I0}, where It, I0, Imax are the values of fluorescence of Rh123 in the medium at the time moments t, 0 and the peak fluorescence after adding digitonin, respectively.
The effect of each concentration of the agents on Rh123 excretion was determined in several experiments.

P-gp = assay: calcein formation rate from calcein AM in R388VR cells without Co2+; details: up to 1.2 μM
Description: The rate of calcein formation in the dish with calcein AM added without Co2+ ions makes it possible to determine the activity of the transport proteins expelling calcein AM out of cells, rather than that of the proteins capable of transporting calcein from the cells (MRP), since in this case total calcein is registered: both intra- and extracellular.

tumour cells = details: calcium channel blocker; cited from earlier work

T1 sequence (O35379 whole entry): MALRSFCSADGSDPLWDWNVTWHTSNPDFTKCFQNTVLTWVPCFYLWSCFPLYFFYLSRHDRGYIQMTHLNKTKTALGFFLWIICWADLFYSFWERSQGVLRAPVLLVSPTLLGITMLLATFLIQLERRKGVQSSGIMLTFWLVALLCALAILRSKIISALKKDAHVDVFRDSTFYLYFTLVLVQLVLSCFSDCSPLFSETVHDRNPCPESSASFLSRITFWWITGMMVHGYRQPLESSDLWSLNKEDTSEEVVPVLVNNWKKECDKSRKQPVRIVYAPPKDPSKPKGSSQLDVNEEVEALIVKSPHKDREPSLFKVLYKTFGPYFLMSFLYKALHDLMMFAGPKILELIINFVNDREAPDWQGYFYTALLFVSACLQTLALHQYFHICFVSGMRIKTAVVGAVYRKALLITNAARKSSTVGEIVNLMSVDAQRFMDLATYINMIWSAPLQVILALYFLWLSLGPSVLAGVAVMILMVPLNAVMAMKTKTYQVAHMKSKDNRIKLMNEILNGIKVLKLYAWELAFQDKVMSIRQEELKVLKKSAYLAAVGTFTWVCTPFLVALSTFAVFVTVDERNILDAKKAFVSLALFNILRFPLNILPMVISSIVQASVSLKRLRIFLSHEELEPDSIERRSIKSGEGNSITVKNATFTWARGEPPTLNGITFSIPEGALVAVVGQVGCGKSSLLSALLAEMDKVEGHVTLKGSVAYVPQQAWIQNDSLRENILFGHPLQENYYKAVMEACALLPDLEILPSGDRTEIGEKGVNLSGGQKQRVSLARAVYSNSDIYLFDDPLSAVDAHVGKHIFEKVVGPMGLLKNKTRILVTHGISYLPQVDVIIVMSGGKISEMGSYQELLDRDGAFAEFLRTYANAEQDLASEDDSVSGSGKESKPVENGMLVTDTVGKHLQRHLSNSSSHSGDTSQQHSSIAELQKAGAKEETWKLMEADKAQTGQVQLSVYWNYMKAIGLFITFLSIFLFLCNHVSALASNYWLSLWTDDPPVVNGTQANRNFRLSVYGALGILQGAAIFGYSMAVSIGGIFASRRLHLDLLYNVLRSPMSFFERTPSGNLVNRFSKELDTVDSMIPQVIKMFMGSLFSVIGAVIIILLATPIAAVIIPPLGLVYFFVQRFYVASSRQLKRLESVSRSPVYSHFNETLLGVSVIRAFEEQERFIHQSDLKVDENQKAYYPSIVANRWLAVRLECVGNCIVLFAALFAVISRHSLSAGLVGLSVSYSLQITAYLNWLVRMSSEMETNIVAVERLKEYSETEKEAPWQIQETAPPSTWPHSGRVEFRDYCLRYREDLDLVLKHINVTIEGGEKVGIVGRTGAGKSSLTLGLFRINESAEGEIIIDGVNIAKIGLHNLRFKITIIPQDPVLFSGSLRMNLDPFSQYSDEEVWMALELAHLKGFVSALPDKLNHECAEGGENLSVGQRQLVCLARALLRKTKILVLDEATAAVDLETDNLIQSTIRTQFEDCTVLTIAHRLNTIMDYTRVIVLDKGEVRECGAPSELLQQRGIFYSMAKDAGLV

- indices of immunity and total blood count after chemoradiotherapy [1]: did not virtually alter
- effect on growth of Hep-2 tumour cells (Hep-2 cells): virtually does not influence the growth
- increase of calcein formation rate (MRP [2]): double
- solubility in alcohol ([3]; alcohol): not alcohol- or chloroform-soluble
- solubility in chloroform ([3]; chloroform): not alcohol- or chloroform-soluble
- solubility in isotonic sodium chloride solution ([3]; isotonic sodium chloride solution): readily soluble
- solubility in water ([3]; water): readily soluble
- decrease of calcein excretion rate (MRP [5]; 1.2 nM): 1.5 fold
- calcein excretion rate inhibition ratio (MRP [5]; 120 nM): 2.6
- indices of natural cellular and T-lymphocytic immunity, acute inflammation phase proteins ([10]; human, in vivo): did not alter substantially
SMILES: NCCCC[C@H](NC(=O)CNC(=O)[C@H](Cc1c[nH]cn1)NC(=O)[C@@H](N)CCCCN)C(=O)N[C@@H](Cc1c[nH]cn1)C(=O)NCC(=O)O [hexapeptide, lysyl-histidyl-glycyl-lysyl-histidyl-glycine] (H-KHGKHG-OH)
- MDR development [1]: No events of MDR development were observed
- tumour outcome [1]: complete resorption of the tumour
- side reactions during chemoradiotherapy ([1]; 1 ml of 0.005% solution subcutaneously): No pronounced side reactions were observed
- mutagenic activity (mutagenic activity): neither allergic nor mutagenic activity
- local irritating effect (local irritating effect): no local irritating effect
- death of laboratory animals after a single dose [4]: caused no death
- development of MDR (breast cancer T4cN2M0; 5th course of CMF): No development of MDR was noted
- tumour node diameter on mammograms (breast cancer T4cN2M0; after repeat course of CMF): 5 mm
- tumour node size on mammograms (breast cancer T4cN2M0; before fourth course of polychemotherapy): 3.8 cm
- relapse or metastases at examination (breast cancer T4cN2M0; clinical and roentgenological study, check-up 15 months after the beginning of treatment): no findings suggesting either a breast tumour relapse or metastases; also recorded: no signs of the disease's relapses
- tolerance of chemoradiotherapy / polychemotherapy (breast cancer T4cN2M0; intranasal dosed spray, CMF regimen): tolerated chemoradiotherapy satisfactorily; also recorded: well tolerated
- increase in sensitivity of Hep-2 cells to arsenate ([6]; 1.2 nM): 3 fold
- effect on sensitivity to arsenate and survival of Hep-2 cells ([6]; 50 μM arsenate): increases sensitivity of the tumour cells to the cytostatic preparation arsenate and inhibits survival of the Hep-2 cells
- toxic reaction and side effects [7]: neither induces a pronounced toxic reaction nor leads to development of side effects
- calcein formation rate increment ratio [8]: 2.6
- increase of rate of calcein formation in cells ([8]; 1.2 nM): twofold
- tumour at check-up examinations ([9]; after polychemotherapy): no oesophageal tumour perceived
- metastases into lymph nodes ([9]; histology of subtotal oesophageal resection): No metastases into lymph nodes were detected
- manifestations of toxicosis during polychemotherapy ([9]; human, in vivo): No markedly pronounced manifestations of toxicosis were observed
- disease relapses ([10]; 12-month follow-up): no disease relapses
- symptoms of MDR ([10]; with chemoradiotherapy): No symptoms of MDR were observed
- tumour outcome ([10]; with chemoradiotherapy): complete resorption of the tumour
- optimal concentration of maximal inhibition of Rh123 excretion [11]: 1 ng/mL
- R value (Rh123 excretion inhibition) ([11]; 1 ng/ml): 3.2
- effect on calcein formation rate (P-gp): does not act upon the calcein formation rate
- allergic activity (allergic activity): neither allergic nor mutagenic activity

SMILES: COc1ccc(CCN(C)CCCC(C#N)(c2ccc(OC)c(OC)c2)C(C)C)cc1OC (stereo not shown) [verapamil]
- dose exhibiting in vitro MDR inhibiting activity (tumour cells): approximately 10 μM
